Data taken from ChEMBL document CHEMBL1143327, “Carbonic anhydrase inhibitors: inhibition studies of a coral secretory isoform with inorganic anions” (Bioorg Med Chem Lett, 2009).

Target: Carbonic anhydrase 4 (Homo sapiens, UniProt P22748)
Sequence (P22748 whole entry): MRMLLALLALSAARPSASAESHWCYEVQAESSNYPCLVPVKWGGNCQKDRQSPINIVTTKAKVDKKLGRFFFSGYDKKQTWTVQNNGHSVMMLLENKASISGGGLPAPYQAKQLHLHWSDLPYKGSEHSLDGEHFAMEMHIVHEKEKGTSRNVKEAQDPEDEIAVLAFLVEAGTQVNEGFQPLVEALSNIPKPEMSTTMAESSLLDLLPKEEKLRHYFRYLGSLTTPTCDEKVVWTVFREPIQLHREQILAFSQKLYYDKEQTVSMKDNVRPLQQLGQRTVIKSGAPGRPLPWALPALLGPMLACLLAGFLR

Row | Ki [µM] | SMILES
1 | 820 | OB(O)c1ccccc1 [PHENYLBORONIC ACID]
2 | 90 | NS(=O)(=O)O [SULFAMATE]
